According to US11840528B2 (Hoffmann-La Roche Inc., priority 2018, dated 2023):

Assays:
h-GABA-A α5β3γ2 [1] = target: T1, h-GABA-A α5β3γ2 (Homo sapiens, UniProt P18507+P31644); assay: [3H]flumazenil competition binding assay, membranes of HEK293 cells expressing GABAA receptors; conditions: displacement of [3H]-Flumazenil 0.5 nM, HEK293 cells expressing human receptors, mean of two determinations; Table 1
Method in brief: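 Receptor source: human α5β3γ2 transiently transfected into HEK293 cells, membranes in pH 7.5 Krebs-tris. Filtration through GF/C, then scintillation counting.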

h-GABA-A α5β3γ2 [2] = target: T1, h-GABA-A α5β3γ2; assay: Two-electrode voltage clamp electrophysiology in Xenopus laevis oocytes expressing GABAA receptors, modulation of GABA EC20 current; format: cell-based; set-up: host or cells: Xenopus laevis oocytes micro-injected with RNA transcripts of the subunits; conditions: Table 1; for Efficacy (GABA) %: % modulation of GABA EC20 = 100*(Fold increase-1); for Fold increase h-GABA-A α5β3γ2 oocyte: test compound at approx. 30 fold its Ki, GABA at EC20
Method in brief: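 Modulation is reported as % of the GABA EC20 current, calculated as 100*(Fold increase−1) from the peak ratio between a second GABA response carrying compound (applied at roughly 30-fold Ki) and a preceding control response. Oocytes expressing human α5β3γ2 were clamped at −80 mV at room temperature, 3–5 days after injection.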

Row | SMILES | Ki (h-GABA-A α5β3γ2 [1]) [nM] | Efficacy (GABA) % (h-GABA-A α5β3γ2 [2]) [%] | Fold increase h-GABA-A α5β3γ2 oocyte (h-GABA-A α5β3γ2 [2])
1 | CO[C@H]1COC2(C1)CN(c1cnn(Cc3c(-c4ccc(C)nc4)noc3C)c(=O)c1)C2 [Example 134, 5-[(7R)-7-methoxy-5-oxa-2-azaspiro[3.4]octan-2-yl]-2-[[5-methyl-3-(6-methyl-3-pyridyl)isoxazol-4-yl]methyl]pyridazin-3-one] | 16.6 | 111 | 2.11
2 | COc1ccc(-c2cnn(Cc3c(-c4ccc(C)nc4)noc3C)c(=O)c2)cc1F [Example 80, 5-(3-fluoro-4-methoxyphenyl)-2-((5-methyl-3-(6-methylpyridin-3-yl)isoxazol-4-yl)methyl)pyridazin-3(2H)-one] | 8.6 | 133 | 2.33
3 | CO[C@H]1CN(c2cnn(Cc3c(-c4ccc(C)nc4)noc3C)c(=O)c2)[C@H]1C [Example 197, 5-[(2S,3S)-3-methoxy-2-methyl-azetidin-1-yl]-2-[[5-methyl-3-(6-methyl-3-pyridyl)isoxazol-4-yl]methyl]pyridazin-3-one] | 2 | 131 | 2.31
4 | CCO[C@H]1CN(c2cnn(Cc3c(-c4ccc(C)nc4)noc3C)c(=O)c2)[C@H]1C [Example 198, 5-[(2S,3S)-3-ethoxy-2-methyl-azetidin-1-yl]-2-[[5-methyl-3-(6-methyl-3-pyridyl)isoxazol-4-yl]methyl]pyridazin-3-one] | 1.8 | 131 | 2.31
5 | Cc1ccc(-c2noc(C)c2Cn2ncc(N3CC4(CNC4)C3)cc2=O)cn1 [Example 77, 5-(2,6-diazaspiro[3.3]heptan-2-yl)-2-[[5-methyl-3-(6-methyl-3-pyridyl)isoxazol-4-yl]methyl]pyridazin-3-one] | 30.4 | 149 | 2.49
6 | Cc1ccc(-c2noc(C)c2Cn2ncc(N3CC4(CCCO4)C3)cc2=O)cn1 [Example 95, 2-[[5-methyl-3-(6-methyl-3-pyridyl)isoxazol-4-yl]methyl]-5-(5-oxa-2-azaspiro[3.4]octan-2-yl)pyridazin-3-one] | 30.8 | 115 | 2.15
7 | CCCn1cc(-c2cnn(Cc3c(-c4ccc(C)nc4)noc3C)c(=O)c2)cn1 [Example 210, 2-((5-methyl-3-(6-methyl-3-pyridyl)isoxazol-4-yl)methyl)-5-(1-propylpyrazol-4-yl)pyridazin-3-one] | 26 | 143 | 2.43
8 | Cc1ccc(-c2noc(C)c2Cn2ncc(N3CC4(CCC(F)CO4)C3)cc2=O)cn1 (single isomer, unassigned) [Example 276] | 36.2 | 102 | 2.02
9 | COc1cccc(-c2cnn(Cc3c(-c4ccc(C)nc4)noc3C)c(=O)c2)n1 [Example 145, 5-(6-methoxy-2-pyridyl)-2-((5-methyl-3-(6-methyl-3-pyridyl)isoxazol-4-yl)methyl)pyridazin-3-one] | 26.2 | 119 | 2.19
10 | Cc1ccc(-c2noc(C)c2Cn2ncc(N3CCN(C4CC4)[C@@H](C)C3)cc2=O)cn1 [Example 60, 5-[(3S)-4-cyclopropyl-3-methyl-piperazin-1-yl]-2-[[5-methyl-3-(6-methyl-3-pyridyl)isoxazol-4-yl]methyl]pyridazin-3-one] | 10.2 | 97 | 1.97
11 | Cc1ccc(-c2noc(C)c2Cn2ncc(N3CC(Oc4ccccn4)C3)cc2=O)cn1 [Example 124, 2-[[5-methyl-3-(6-methyl-3-pyridyl)isoxazol-4-yl]methyl]-5-[3-(2-pyridyloxy)azetidin-1-yl]pyridazin-3-one] | 12 | 148 | 2.48
12 | Cc1onc(-c2ccc(Cl)nc2)c1Cn1ncc(N2CCN(c3cccnc3)CC2)cc1=O [Example 278, 2-((3-(6-chloropyridin-3-yl)-5-methylisoxazol-4-yl)methyl)-5-(4-(pyridin-3-yl)piperazin-1-yl)pyridazin-3(2H)-one] | 8 | 108 | 2.08
13 | Cc1ccc(-c2noc(C)c2Cn2ncc(N3CC(OCC(F)F)C3)cc2=O)cn1 [Example 206, 5-[3-(2,2-difluoroethoxy)azetidin-1-yl]-2-[[5-methyl-3-(6-methyl-3-pyridyl)isoxazol-4-yl]methyl]pyridazin-3-one] | 13.7 | 144 | 2.44
14 | COc1cc(-c2cnn(Cc3c(-c4ccc(C)nc4)noc3C)c(=O)c2)c(F)cn1 [Example 191, 5-(5-fluoro-2-methoxypyridin-4-yl)-2-((5-methyl-3-(6-methylpyridin-3-yl)isoxazol-4-yl)methyl)pyridazin-3(2H)-one] | 5.9 | 126 | 2.26
15 | Cc1ccc(-c2noc(C)c2Cn2ncc(-c3ccnc(C)c3)cc2=O)cn1 [Example 106, 2-((5-methyl-3-(6-methylpyridin-3-yl)isoxazol-4-yl)methyl)-5-(2-methylpyridin-4-yl)pyridazin-3(2H)-one] | 6.2 | 136 | 2.36
16 | Cc1ccc(-c2noc(C)c2Cn2ncc(-c3ccnc(OC4CCOC4)c3)cc2=O)cn1 (stereo not drawn) [Example 177, 2-((5-methyl-3-(6-methylpyridin-3-yl)isoxazol-4-yl)methyl)-5-(2-((tetrahydrofuran-3-yl)oxy)pyridin-4-yl)pyridazin-3(2H)-one] | 18.4 | 121 | 2.21
17 | Cc1ccc(-c2noc(C)c2Cn2ncc(NC3CN(C4CC4)C3)cc2=O)cn1 [Example 96, 5-((1-cyclopropylazetidin-3-yl)amino)-2-((5-methyl-3-(6-methylpyridin-3-yl)isoxazol-4-yl)methyl)pyridazin-3(2H)-one] | 13 | 132 | 2.32
18 | CC(=O)N(C)[C@@H]1CCN(c2cnn(Cc3c(-c4ccc(C)nc4)noc3C)c(=O)c2)C1 [Example 2, N-methyl-N-[(3R)-1-[1-[[5-methyl-3-(6-methyl-3-pyridyl)isoxazol-4-yl]methyl]-6-oxo-pyridazin-4-yl]pyrrolidin-3-yl]acetamide] | 26.2 | 155 | 2.55
19 | Cc1ccc(-c2noc(C)c2Cn2ncc(N3CCN(C(=O)C4CC4)CC3)cc2=O)cn1 [Example 9, 5-(4-(cyclopropanecarbonyl)piperazin-1-yl)-2-((5-methyl-3-(6-methylpyridin-3-yl)isoxazol-4-yl)methyl)pyridazin-3(2H)-one] | 15.9 | 153 | 2.53
20 | COC1CN(c2cnn(Cc3c(-c4ncc(C(F)(F)F)cn4)noc3C)c(=O)c2)C1 [Example 229, 5-(3-methoxyazetidin-1-yl)-2-((5-methyl-3-(5-(trifluoromethyl)pyrimidin-2-yl)isoxazol-4-yl)methyl)pyridazin-3(2H)-one] | 10 | 81 | 1.81
21 | Cc1ncc(-c2noc(C)c2Cn2ncc(N3CC4(CCCO4)C3)cc2=O)cc1F [Example 208, 2-((3-(5-fluoro-6-methylpyridin-3-yl)-5-methylisoxazol-4-yl)methyl)-5-(5-oxa-2-azaspiro[3.4]octan-2-yl)pyridazin-3(2H)-one] | 61.2 | 110 | 2.1
22 | Cc1ccc(-c2noc(C)c2Cn2ncc(-c3ccc(N(C)C)nc3)cc2=O)cn1 [Example 116, 5-[6-(dimethylamino)-3-pyridyl]-2-((5-methyl-3-(6-methyl-3-pyridyl)isoxazol-4-yl)methyl)pyridazin-3-one] | 30.8 | 84 | 1.84
23 | Cc1ccc(-c2noc(C)c2Cn2ncc(N3CC4(C3)CC(F)(F)CO4)cc2=O)cn1 [Example 193, 5-(7,7-difluoro-5-oxa-2-azaspiro[3.4]octan-2-yl)-2-[[5-methyl-3-(6-methyl-3-pyridyl)isoxazol-4-yl]methyl]pyridazin-3-one] | 7.2 | 95 | 1.95
